Data from PMC7352952, “Peptides Derived from (RRWQWRMKKLG)2-K-Ahx Induce Selective Cellular Death in Breast Cancer Cell Lines through Apoptotic Pathway” (International Journal of Molecular Sciences, 2020).
≈ marks a conversion by molar mass, not a printed value. Bridge positions count the residues as written; N and C are the ends. Square brackets hold non-standard residues; d marks the D form. Peptide text beside a SMILES is read from it. I, II: the chains in the order shown. Ahx = NCCCCCC(=O)O

Columns and labels:
MCF-7 cell line = assay: MTT viability test, MCF-7 cells; assay type: cell-based, human; details: for cytotoxic effect against MCF-7 compared with ^26[M] (in words) / IC50: 24 h; for IC50, cytotoxic effect, MCF-7: 24 h at 37 °C, three independent experiments with n = 4 each; for IC50: human, pH 7.4
Protocol: (§1) For all cell lines, the medium used was Dulbecco’s Modified Eagle’s Medium (DMEM)/Nutrient Mixture F-12 Ham. For the HTB-132, MCF-7, and MCF-12A lines, the medium was supplemented with 10% fetal bovine serum (SFB), and 1.5 g/L NaHCO3 and NaOH were added up to pH 7.4, amphotericin (200 μg/mL), and 1% penicillin and streptomycin. For the primary culture cells of bovine mammary epithelium and fibroblasts, in addition to the above, hydrocortisone (250 μg/mL) was added. All media were filtered through a 0.22 μm membrane.
(§2) Briefly, the cells were seeded with a complete medium in 96-well plates at a rate of 10,000 cells and 100 µL per well, and adhesion to the plates was allowed for 24 h. Subsequently, the complete medium was removed and an incomplete medium was added for synchronization for another 24 h. The cells were then incubated at 37 °C for 2, 24, or 48 h with 100 μL of peptide at the concentrations to be evaluated (200, 100, 50, 25, 12.5, 6.25 and 3.1 μg/mL). Next, the peptide was removed from the box, and 100 µL of incomplete medium with 10% 3-4,5-dimethylthiazol-2-yl-2,5-diphenyltetrazole (MTT) bromide was added and incubated for 4 h. The medium was replaced with 100 μL of isopropanol (IPA), and after 30 min of incubation at 37 °C, the absorbance was measured at 575 nm. As a negative control, an incomplete culture medium with 10% MTT was used, and as a positive control, cells without MTT treatment were used.

HTB-132 cell line = assay: MTT viability test, HTB-132 cells; assay type: cell-based, human; details: for cytotoxic effect against HTB-132 compared with ^26[M] (in words) / IC50, cytotoxic effect, HTB-132: MTT; for cytotoxic effect against HTB-132 compared with ^26[M] (in words) / IC50: 24 h; for IC50, cytotoxic effect, HTB-132: 24 h at 37 °C, mean of n = 3; for IC50: human, pH 7.4
Protocol: as §1, §2

MCF-7 cells = assay: Cell morphology and size by inverted microscope; assay type: cell-based, human; details: MCF-7, 90 min of treatment, 37 °C; from 100.27 μm before; average of 100 measurements; Figure 3: 100 µg/mL
Protocol: Cell morphology was monitored before and after treatment with ^26[L] or ^26[F] at different times, using an inverted microscope coupled to an AxioCam ICc1 camera (Figure 3). The untreated cells had normal morphologic characteristics as polygonal, flattened, and elongated cells with long and defined axons (data not shown). After 5 min of treatment with the peptide, most cells retained their morphology; however, some began to appear rounded and shrunken. After 90 min, the cells treated with the peptide (^26[L] or ^26[F]) took on a rounded shape, and shrinkage was observed, going from an average size of 100.27 μm to 39.38 µm. […] At 24 h of treatment, the appearance of small vacuoles was observed, presumably associated with late apoptosis events. Finally, it was observed that the effect of the peptide was sustained up to 48 h since at that time no recovery of cell morphology was observed.
Figure 3 Micrography of MCF-7 cells treated with peptide ^26[F] at 100 µg/mL. The cells were incubated in the absence (A) or the presence of the peptide at (B) 5 min, (C) 90 min, (D) 240 min, (E) 24 h, and (F) 48 h at 37 °C. The cell size was determined as an average of 100 measurements, using an AxioCam ICc1 camera.

MCF-12 cell line = assay type: cell-based, human
Protocol: as §1, §2

[1] = system: MDA-MB 468 breast cancer cells; details: cited from earlier work
Source text: (§3) Breast cancer is the most common cancer type diagnosed worldwide. There are 2.1 million cases annually, and 627,000 deaths of women due to this disease were reported in 2018 [5]. […] However, when this motif was modified or included in longer sequences, the cytotoxic effect against human cancer cell lines increased. In ...

[2] = system: MDA-MB 231 breast cancer cells; details: cited from earlier work
Source text: as §3

CC(C)C[C@H](NC(=O)[C@H](CCCCN)NC(=O)[C@H](CCCCN)NC(=O)[C@H](C)NC(=O)[C@H](CCCNC(=N)N)NC(=O)[C@H](Cc1c[nH]c2ccccc12)NC(=O)[C@H](CCC(N)=O)NC(=O)[C@H](Cc1c[nH]c2ccccc12)NC(=O)[C@H](CCCNC(=N)N)NC(=O)[C@@H](N)CCCNC(=N)N)C(=O)NCC(=O)NCCCC[C@H](NC(=O)CNC(=O)[C@H](CC(C)C)NC(=O)[C@H](CCCCN)NC(=O)[C@H](CCCCN)NC(=O)[C@H](C)NC(=O)[C@H](CCCNC(=N)N)NC(=O)[C@H](Cc1c[nH]c2ccccc12)NC(=O)[C@H](CCC(N)=O)NC(=O)[C@H](Cc1c[nH]c2ccccc12)NC(=O)[C@H](CCCNC(=N)N)NC(=O)[C@@H](N)CCCNC(=N)N)C(=O)NCCCCCC(N)=O [^26[A], (RRWQWRAKKLG)2-K-Ahx] (I: H-RRWQWRAKKLGK[Ahx]-NH2 / II: H-RRWQWRAKKLG; amide I:12-II:C)
cytotoxic effect against MCF-7 compared with ^26[M] (in words) (MCF-7 cell line; MTT): greater cytotoxic effect against MCF-7 cells than the peptide | IC50, cytotoxic effect, MCF-7 (MCF-7 cell line; MTT): > 200 mg/L | IC50 (MCF-7 cell line): > 60 µM

CC(C)C[C@H](NC(=O)[C@H](CCCCN)NC(=O)[C@H](CCCCN)NC(=O)[C@H](CC(=O)O)NC(=O)[C@H](CCCNC(=N)N)NC(=O)[C@H](Cc1c[nH]c2ccccc12)NC(=O)[C@H](CCC(N)=O)NC(=O)[C@H](Cc1c[nH]c2ccccc12)NC(=O)[C@H](CCCNC(=N)N)NC(=O)[C@@H](N)CCCNC(=N)N)C(=O)NCC(=O)NCCCC[C@H](NC(=O)CNC(=O)[C@H](CC(C)C)NC(=O)[C@H](CCCCN)NC(=O)[C@H](CCCCN)NC(=O)[C@H](CC(=O)O)NC(=O)[C@H](CCCNC(=N)N)NC(=O)[C@H](Cc1c[nH]c2ccccc12)NC(=O)[C@H](CCC(N)=O)NC(=O)[C@H](Cc1c[nH]c2ccccc12)NC(=O)[C@H](CCCNC(=N)N)NC(=O)[C@@H](N)CCCNC(=N)N)C(=O)NCCCCCC(N)=O [^26[D], (RRWQWRDKKLG)2-K-Ahx] (I: H-RRWQWRDKKLGK[Ahx]-NH2 / II: H-RRWQWRDKKLG; amide I:12-II:C)
cytotoxic effect against HTB-132 compared with ^26[M] (in words) (HTB-132 cell line): lower cytotoxic effect against HTB-132 cells than the original dimeric peptide | IC50, cytotoxic effect, HTB-132 (HTB-132 cell line): > 200 mg/L | IC50 (HTB-132 cell line): > 60 µM

CC(C)C[C@H](NC(=O)[C@H](CCCCN)NC(=O)[C@H](CCCCN)NC(=O)[C@H](CCCCN)NC(=O)[C@H](CCCNC(=N)N)NC(=O)[C@H](Cc1c[nH]c2ccccc12)NC(=O)[C@H](CCC(N)=O)NC(=O)[C@H](Cc1c[nH]c2ccccc12)NC(=O)[C@H](CCCNC(=N)N)NC(=O)[C@@H](N)CCCNC(=N)N)C(=O)NCC(=O)NCCCC[C@H](NC(=O)CNC(=O)[C@H](CC(C)C)NC(=O)[C@H](CCCCN)NC(=O)[C@H](CCCCN)NC(=O)[C@H](CCCCN)NC(=O)[C@H](CCCNC(=N)N)NC(=O)[C@H](Cc1c[nH]c2ccccc12)NC(=O)[C@H](CCC(N)=O)NC(=O)[C@H](Cc1c[nH]c2ccccc12)NC(=O)[C@H](CCCNC(=N)N)NC(=O)[C@@H](N)CCCNC(=N)N)C(=O)NCCCCCC(N)=O [^26[K], (RRWQWRKKKLG)2-K-Ahx] (I: H-RRWQWRKKKLGK[Ahx]-NH2 / II: H-RRWQWRKKKLG; amide I:12-II:C)
cytotoxic effect against HTB-132 compared with ^26[M] (in words) (HTB-132 cell line): lower cytotoxic effect against HTB-132 cells than the original dimeric peptide | IC50, cytotoxic effect, HTB-132 (HTB-132 cell line): > 200 mg/L | IC50 (HTB-132 cell line): > 60 µM

CC(C)C[C@H](NC(=O)[C@H](CCCCN)NC(=O)[C@H](CCCCN)NC(=O)[C@H](CC(C)C)NC(=O)[C@H](CCCNC(=N)N)NC(=O)[C@H](Cc1c[nH]c2ccccc12)NC(=O)[C@H](CCC(N)=O)NC(=O)[C@H](Cc1c[nH]c2ccccc12)NC(=O)[C@H](CCCNC(=N)N)NC(=O)[C@@H](N)CCCNC(=N)N)C(=O)NCC(=O)NCCCC[C@H](NC(=O)CNC(=O)[C@H](CC(C)C)NC(=O)[C@H](CCCCN)NC(=O)[C@H](CCCCN)NC(=O)[C@H](CC(C)C)NC(=O)[C@H](CCCNC(=N)N)NC(=O)[C@H](Cc1c[nH]c2ccccc12)NC(=O)[C@H](CCC(N)=O)NC(=O)[C@H](Cc1c[nH]c2ccccc12)NC(=O)[C@H](CCCNC(=N)N)NC(=O)[C@@H](N)CCCNC(=N)N)C(=O)NCCCCCC(N)=O [^26[L], (RRWQWRLKKLG)2-K-Ahx] (I: H-RRWQWRLKKLGK[Ahx]-NH2 / II: H-RRWQWRLKKLG; amide I:12-II:C)
average cell size after treatment (MCF-7 cells): 39.38 µm | cytotoxic effect against MCF-7 compared with ^26[M] (in words) (MCF-7 cell line; MTT): greater cytotoxic effect against MCF-7 cells than the peptide | IC50, cytotoxic effect, MCF-7 (MCF-7 cell line; MTT): 66 mg/L (≈ 20.1 µM) | maximum cytotoxic effect, MCF-7 (MCF-7 cell line; MTT, peptide 200 µg/mL, regardless of treatment time (2, 24, 48 h)): ~85% | IC50 (MCF-7 cell line): 20 µM | cytotoxic effect against MCF-12 compared with HTB-132 and MCF-7 (in words) (MCF-12 cell line): lower cytotoxic effect against MCF-12 cells than against breast cancer cell lines | IC50, non-tumorigenic cell line MCF-12 (MCF-12 cell line; 24 h): > 100 mg/L | cytotoxic effect against HTB-132 compared with ^26[M] (in words) (HTB-132 cell line): greater cytotoxic effect against cancer cells than the original peptide | IC50, cytotoxic effect, HTB-132 (HTB-132 cell line): 32 mg/L (≈ 9.77 µM) | IC50 (HTB-132 cell line): 10 µM

RRWQWR [minimal motif peptide of LfcinB, reference compound]
cytotoxic effect against MDA-MB-468 (in words) [1]: low cytotoxic effect | cytotoxic effect against MDA-MB-231 (in words) [2]: low cytotoxic effect
